What all share (experiment): NCI tumour cell line growth inhibition, 48 h
Assay [1] has as its system NCI-H460.
The subject of assay [2] is HCT-15.
Assay [3] has as its system U-251.
The test system of assay [4] is MDA-N.
The subject of assay [5] is HL-60.
Assay [6] has as its system MCF7.
Assay [7] relates to SF-539.
Assay [8] concerns SK-MEL-5.
For assay [9], the system named is SNB-19.
The subject of assay [10] is Malme-3M.
Assay [11] deals with SNB-75.
The subject of assay [12] is CCRF-CEM.
The test system of assay [13] is UO-31.
Assay [14] has as its system RXF 393.
In assay [15] the test system is 786-0.
Assay [16] relates to NCI-H522.
Assay [17] relates to BT-549.
Assay [18] concerns RPMI-8226.

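Step 1: Grow cells in 96-well plates. Step 2: Expose to compound for 48 hours at 5 concentrations. Step 3: Interpolate endpoints linearly; if unreached, use highest concentration. Abbreviation: GI50, concentration required for 50% inhibition of growth.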 Active and inactive are the calls of the source. Rule as the data show it: active = GI50 up to about 1.1 µM and inactive = higher. Where only a bound is given, the exact number is not on record here.

On to `COc1ccc(CCN2CCc3c(C)c(C#N)c4nc5ccccc5n4c32)cc1OC`, for which the GI50 in assay [1] was 20.2 µM (inactive); in assay [2], 29 µM; in [3] it was 15.6 µM (inactive); in assay [4] it was 19.1 µM (inactive); in [5] it was 33.9 µM (inactive); in assay [6], 18 µM (inactive). Further, the GI50 in assay [7] was 49.9 µM (inactive); in assay [8], 19.6 µM (inactive); in assay [9] it was > 100 µM (inactive); in assay [10], 28.7 µM (inactive); in [11] it was 24.8 µM (inactive); in [12], 35.4 µM (inactive). Further, the GI50 in assay [13] is 36.3 µM (inactive); in assay [14] it was 30.8 µM (inactive); in assay [15], 56.8 µM (inactive); in [16] it was 21.4 µM (inactive); in assay [17], 27.2 µM (inactive).

Turning to `COc1ccc(/C=C2\N=C3N(Cc4ccccc4)C=C(N)N3C2=O)cc1`, the GI50 in assay [1] is > 100 µM (inactive); in [2], greater than 100 µM; in assay [3], 30.3 µM (inactive); in assay [4] it was > 100 µM (inactive); in [5], 55 µM (inactive); in assay [6], > 100 µM (inactive). The GI50 in assay [7] is > 100 µM (inactive); in assay [8] it was 46.7 µM (inactive); in assay [9], 20.8 µM (inactive); in [10] it was > 100 µM (inactive); in [11] it was 17.5 µM (inactive); in assay [12] it was 89.5 µM (inactive). In addition, the GI50 in assay [13] is 46.6 µM (inactive); in assay [14], > 100 µM (inactive); in assay [15], 52.7 µM (inactive); in [16] it was 49.1 µM (inactive); in [17] it was 32.9 µM (inactive).

For `c1cnc(N2CCN(Cc3c[nH]c4ccccc34)CC2)nc1`, the GI50 is 31.3 µM (inactive) in assay [1]; 72.9 µM in assay [2]; 11.7 µM (inactive) in assay [18]; 37.1 µM (inactive) in [3]; 25.1 µM (inactive) in [4]; 51.6 µM (inactive) in assay [5]. Also, the GI50 in assay [6] was 16.9 µM (inactive); in [7] it was 25.6 µM (inactive); in assay [8], 36.2 µM (inactive); in assay [9], > 100 µM (inactive); in assay [10], 43.4 µM (inactive); in assay [11], 89.9 µM (inactive). Moreover, the GI50 in [12] is 50.1 µM (inactive); in [13], 38.5 µM (inactive); in assay [14], 41.9 µM (inactive); in [15], 14.3 µM (inactive); in [16] it was > 100 µM (inactive); in [17], 42.1 µM (inactive).

Consider `CC[N+]1(C)CCC(O)(/C=C/c2ccc(OC)cc2)C(C(=O)/C=C/c2ccc(OC)cc2)C1` (centres undefined), for which the GI50 in [1] is 9.53 µM (inactive); in [2] it was 9.98 µM; in [18], 0.252 µM (active); in [3], 15.6 µM (inactive); in assay [4] it was 12.3 µM (inactive); in assay [5] it was 1.52 µM (inactive). For the same molecule, the GI50 in assay [6] is 4.29 µM (inactive); in assay [7] it was 5.35 µM (inactive); in assay [8], 14.7 µM (inactive); in assay [9], 17.3 µM (inactive); in [10], 14.4 µM (inactive); in assay [11] it was 18.9 µM (inactive). Further, the GI50 in assay [12] was 0.548 µM (active); in assay [13], 12.6 µM (inactive); in assay [14], 15.1 µM (inactive); in [15], 3.13 µM (inactive); in [16] it was 2.26 µM (inactive); in assay [17], 20.1 µM (inactive).

As to `CC1=CC(=O)/C(=C/NC(=S)Nc2ccc(S(N)(=O)=O)cc2)C(=O)O1`, the GI50 in [1] is > 100 µM (inactive); in [2], greater than 100 µM; in assay [3] it was > 100 µM (inactive); in [4] it was > 100 µM (inactive); in assay [5] it was > 100 µM (inactive); in assay [6] it was > 100 µM (inactive). Moreover, the GI50 was > 100 µM (inactive) in assay [7]; > 100 µM (inactive) in assay [8]; > 100 µM (inactive) in [9]; > 100 µM (inactive) in assay [11]; > 100 µM (inactive) in [13]; 83.6 µM (inactive) in assay [14]. The GI50 in assay [15] and in [17] was > 100 µM (inactive) in each case.

For the origin of these results see ChEMBL document CHEMBL1201862, “PubChem BioAssay data set” (2004).
